Assay results as given in paper PMC4384115, “Molecular Recognition of PTS-1 Cargo Proteins by Pex5p: Implications for Protein Mistargeting in Primary Hyperoxaluria” (Biomolecules, 2015).
No end group written: not given here.

Key:
[1] = biological target: T1, Pex5p-pbd (PTS1 binding domain of human Pex5p, amino acids 235–602) (Homo sapiens, UniProt P50542); experiment: Isothermal titration calorimetry of AGT proteins and PTS1 nonapeptides with Pex5p-pbd; details: for -TΔS / ΔG / ΔH / decrease in the enthalpic penalty (more favorable enthalpic contribution) to binding compared to the natural PTS1 sequence / N (binding stoichiometry) / Kd: ITC; for -TΔS / ΔG / ΔH / N (binding stoichiometry) / Kd: pH 7.4, 25 °C; for ΔCp: from the linear dependence of ΔH on temperature, 10–35 °C, pH 7.4; for decrease in the enthalpic penalty (more favorable enthalpic contribution) to binding compared to the natural PTS1 sequence: 25 °C, full-length AGT / AGT-LRM background; for N (binding stoichiometry): 20 mM Na-HEPES, 200 mM NaCl, AGT protein in cell titrated with Pex5p-pbd
T1 construct: Pex5p-pbd; amino acids 235–602; hexa-histidine (N); made in house
Description: Calorimetric measurements were carried out using a MicroCal ITC200 microcalorimeter (MicroCal, Malvern Instruments) with 205.9 μL cell volume. All the experiments were performed using 20 mM Na-HEPES (or Na-Phosphate), 200 mM NaCl, pH 7.4. […] Each titration was initiated by a 0.5 μL injection followed by 14–30 injections of 1.2–2.5 μL (spaced 150 s). Heats of dilution were determined experimentally from blank titrations. The association constants (Ka), binding enthalpy changes (ΔH), as well as the binding stoichiometries (N), were obtained by non-linear regression analysis using a one-independent-type-of-sites binding model implemented in the Origin 7.0. Software (Origin Lab Co., Northampton, MA, USA).

[2] = test system: CHO cells; experiment: Confocal immunofluorescence colocalization of AGT with peroxisomes (PMP70) in transfected CHO cells; assay type: cell-based, Chinese hamster; details: mean ± S.E., SEM
Description: (§1) Chinese hamster ovary (CHO) cells (ATTC, Rockville, MD USA) were grown in alpha-minimal essential medium (α-MEM, Lonza, Köln, Germany) supplemented with glutamine, penicillin/streptomycin and 5% fetal bovine serum. Cell transfections were performed using AGT cDNA variants (AGT-LRM or AGT-LRM-SKL) subcloned in pCIneo plasmids (Promega) with Transfast reagent (Promega, Madison, WI, USA), following manufacturer’s guidelines. After 24 h, cells were passed to plates containing 13 mm glass coverslips for immunofluorescence studies. Mitochondria in half the coverslips were labeled by incubation with Mitotracker (CMXRos, Invitrogen, Carlsbad, CA, USA) at the end of the culture. […]
(§2) For quantitative immune-colocalization, the system was optimized to detect two fluorescent signals in one specimen: one in the green channel detector for protein of interest AGT-LRM or AGT-LRM-SKL and the other in the red channel, for either mitochondria labeled with mitotracker or peroxisomes labeled with peroxisomal membrane protein 70 (PMP70) antibody. […] Colocalization events (or the lack thereof) were analyzed quantitatively with FluoView software (Olympus, Tokyo, Japan) and ImageJ software (NIH, Bethesda, MD, USA) with the JACoP plugin, based on a global statistic approach that conducts an intensity correlation coefficient-based examination. […]

[3] = test system: CHO cells; experiment: Confocal immunofluorescence colocalization of AGT with mitochondria (Mitotracker) in transfected CHO cells; assay type: cell-based, Chinese hamster; details: transiently transfected CHO cells, fixed 72 h after transfection; mean ± S.E.; SEM
Description: as §1, §2

[4] = biological target: Pex5p; details: PTS1 octapeptide sequences; read-out: Kd (nM), previously determined dissociation constant; cited from earlier work
Description: The protein sequence in which these octapeptides are naturally found, as well as their previously determined dissociation constant, are indicated [7].

[5] = AGT proteins, mean ± s.d. of three independent titrations, SD
[6] = mean ± s.d. of three independent titrations, SD
[7] = PTS1 nonapeptides (500 μM) titrated into Pex5p-pbd (20 μM), means of two independent titrations

## QHCPK S KL [AGT-SKL]
[1]; [5]
  -TΔS: -11.8 ± 0.406 kcal/mol
  ΔG: -10.3 ± 0.22 kcal/mol
  ΔH: 1.51 ± 0.19 kcal/mol
[1]; AGT proteins
  ΔCp: −2.7 ± 0.1 kJ/mol·K
[1]
  decrease in the enthalpic penalty (more favorable enthalpic contribution) to binding compared to the natural PTS1 sequence: about 16 kJ/mol
[1]; [6]
  N (binding stoichiometry): 0.8 ± 0.1
[2]; CHO cells, given as fraction, split Manders' M1 in situation 2, Manders' overlap R in situation 4
  % Coloc (Manders' m), AGT + PMP70: 0.84 ± 0.08
[2]; transiently transfected CHO cells, fixed 72 h after transfection
  Pearson Rr, AGT + PMP70: 0.79 ± 0.08
[3]
  Pearson Rr, AGT + Mitotracker: 0.47 ± 0.08

## QHCPKKKL [AGT, alanine: glyoxylate aminotransferase, reference compound]
[1]; [5]
  -TΔS: -13.2 ± 0.287 kcal/mol
  Kd: 1400 ± 200 nM
  ΔG: -8.01 ± 0.096 kcal/mol
  ΔH: 5.19 ± 0.884 kcal/mol
[1]; AGT proteins
  ΔCp: −2.5 ± 0.4 kJ/mol·K
[1]; [6]
  N (binding stoichiometry): 1.0 ± 0.1

## VAQATC KL [HMG, reference compound]
[1]
  decrease in the enthalpic penalty (more favorable enthalpic contribution) to binding compared to the natural PTS1 sequence: about 16 kJ/mol
[4]
  Kd: 2000 nM

## VGSL K S KL [ACO]
[4]
  Kd: 1.6 nM

## YQHCPKKKL [pAGT]
[1]; [7]
  Kd: 19000 nM

## YQHCPKSKL [pAGT-SKL]
[1]; [7]
  Kd: 29 nM

## YQSHPRAKL [pCRA]
[1]; [7]
  Kd: 157 nM

## YVGSLKSKL [pACO]
[1]; [7]
  Kd: 14 nM
